Experimental data from ChEMBL document CHEMBL4742385 (2019).

Legend:
[1] = biological target: Cyclin-C/Cyclin-dependent kinase 19 (Homo sapiens) (UniProt Q9BWU1+P24863); assay: Inhibition of humanGST-tagged CDK19/Cyc C expressed in Sf21 cells at 1 uM measured after 1 hr by fluorescence plate reader relative to control
RPMI-8226 = assay: Antiproliferative activity against human RPMI-8226 assessed as inhibition of cell growth at 1 uM after 8 days measured after Celltiter-Glo assay relative to control; type: functional; conditions: Homo sapiens, RPMI-8226, 192 h, time 8 day
[2] = biological target: CDK8/Cyclin C (Homo sapiens) (UniProt P49336+P24863); assay: Inhibition of human CDK8/Cyc C expressed in Sf21 cells at 1 uM measured after 1 hr by fluorescence plate reader relative to control

Compound: Cn1cc(-c2ccncc2/C=C/C(=O)Nc2ccc(CN3CCOCC3)cc2F)cn1
- inhibition [1]: 97%
- inhibition at 1 µM (RPMI-8226): 56%
- inhibition [2]: 99%

Compound: O=C(/C=C/c1cnccc1-c1ccc2[nH]cnc2c1)Nc1ccc(CN2CCOCC2)cc1
- inhibition [1]: 101%
- inhibition at 1 µM (RPMI-8226): 66%
- inhibition [2]: 99%

Compound: Cn1cc(-c2ccncc2/C=C/C(=O)Nc2ccc(CC(C)(C)O)cc2)cn1
- inhibition [1]: 101%
- inhibition at 1 µM (RPMI-8226): 62%
- inhibition [2]: 99%

Compound: Cn1cc(-c2ccncc2/C=C/C(=O)Nc2cccc(-c3cccnc3)c2)cn1
- inhibition [1]: 78%
- inhibition at 1 µM (RPMI-8226): 58%
- inhibition [2]: 84%

Compound: Cn1cc(-c2ccncc2/C=C/C(=O)Nc2ccc3c(ccn3C)c2)cn1
- inhibition [1]: 99%
- inhibition at 1 µM (RPMI-8226): 55%
- inhibition [2]: 98%

Compound: COC(C)c1ccc(NC(=O)/C=C/c2cnccc2-c2cnn(C3CC3)c2)cc1 (stereo not given)
- inhibition [1]: 93%
- inhibition at 1 µM (RPMI-8226): 62%
- inhibition [2]: 102%

Compound: Cn1cc(-c2c(F)cncc2/C=C/C(=O)Nc2ccc3c(c2)CN(CC(C)(F)F)C3)cn1
- inhibition [1]: 100%
- inhibition at 1 µM (RPMI-8226): 63%
- inhibition [2]: 106%

Compound: O=C(/C=C/c1cnccc1-c1cnn(C2CC2)c1)Nc1ccc(COC(F)F)cc1
- inhibition [1]: 93%
- inhibition at 1 µM (RPMI-8226): 52%
- inhibition [2]: 97%

Compound: O=C(/C=C/c1cnccc1-c1cnn(C2CC2)c1)Nc1ccc2c(c1)CCN(CC(F)(F)F)C2
- inhibition [1]: 98%
- inhibition at 1 µM (RPMI-8226): 49%
- inhibition [2]: 103%

Compound: O=C(/C=C/c1cnccc1-c1cnn(C2CC2)c1)Nc1ccc(COCC(F)(F)F)cc1F
- inhibition [1]: 96%
- inhibition at 1 µM (RPMI-8226): 53%
- inhibition [2]: 101%

Compound: O=C(/C=C/c1cnccc1-c1ccc2[nH]ncc2c1)Nc1ccc(CN2CCOCC2)cc1
- inhibition [1]: 97%
- inhibition at 1 µM (RPMI-8226): 55%
- inhibition [2]: 96%

Compound: COCCn1cnc2ccc(-c3ccncc3/C=C/C(=O)Nc3ccc(CN4CCOCC4)cc3)cc21
- inhibition [1]: 97%
- inhibition at 1 µM (RPMI-8226): 62%
- inhibition [2]: 103%

Compound: Cn1cnc2ccc(-c3ccncc3/C=C/C(=O)Nc3ccc(CN4CCOCC4)cc3)cc21
- inhibition [1]: 102%
- inhibition at 1 µM (RPMI-8226): 65%
- inhibition [2]: 102%

Compound: O=C(/C=C/c1cnccc1-c1cnn(CC2(F)CC2)c1)Nc1ccc(CN2CCOCC2)cc1
- inhibition [1]: 101%
- inhibition at 1 µM (RPMI-8226): 57%
- inhibition [2]: 99%

Compound: CN(C)CCc1ccc(NC(=O)/C=C/c2cnccc2-c2cnn(C)c2)cc1
- inhibition [1]: 98%
- inhibition at 1 µM (RPMI-8226): 66%
- inhibition [2]: 98%

Compound: O=C(/C=C/c1cnccc1-c1cnn(Cc2ccccc2)c1)Nc1ccc(CN2CCOCC2)cc1
- inhibition [1]: 101%
- inhibition at 1 µM (RPMI-8226): 63%
- inhibition [2]: 101%

Compound: CCn1cc(-c2ccncc2/C=C/C(=O)Nc2ccc(CN3CCOCC3)cc2)cn1
- inhibition [1]: 100%
- inhibition at 1 µM (RPMI-8226): 63%
- inhibition [2]: 96%

Compound: COc1ccsc1-c1ccncc1/C=C/C(=O)Nc1ccc(CN2CCOCC2)cc1
- inhibition [1]: 100%
- inhibition at 1 µM (RPMI-8226): 52%
- inhibition [2]: 97%

Compound: O=C(/C=C/c1cnccc1-c1cnn2ccccc12)Nc1ccc(CN2CCOCC2)cc1
- inhibition [1]: 97%
- inhibition at 1 µM (RPMI-8226): 55%
- inhibition [2]: 98%

Compound: Cn1cc(-c2ccncc2/C=C/C(=O)Nc2ccc(CCC(F)(F)F)cc2)cn1
- inhibition [1]: 99%
- inhibition at 1 µM (RPMI-8226): 53%
- inhibition [2]: 98%

Compound: Cn1cc(-c2ccncc2/C=C/C(=O)Nc2ccc(CN3CCN4CCCC4C3)cc2)cn1 (stereo not given)
- inhibition [1]: 74%
- inhibition at 1 µM (RPMI-8226): 59%
- inhibition [2]: 100%

Compound: COC1CN(Cc2ccc(NC(=O)/C=C/c3cnccc3-c3cnn(C4CC4)c3)cc2)C1
- inhibition [1]: 99%
- inhibition at 1 µM (RPMI-8226): 59%
- inhibition [2]: 101%

Compound: Cn1cc(-c2ccncc2/C=C/C(=O)Nc2ccc3cc[nH]c3c2)cn1
- inhibition [1]: 93%
- inhibition at 1 µM (RPMI-8226): 54%
- inhibition [2]: 98%

Compound: Cn1cc(-c2c(F)cncc2/C=C/C(=O)Nc2ccc(CN3CCOCC3)cc2)cn1
- inhibition [1]: 100%
- inhibition at 1 µM (RPMI-8226): 67%
- inhibition [2]: 100%

Compound: COc1ncc(-c2ccncc2/C=C/C(=O)Nc2ccc(CN3CCOCC3)cc2)s1
- inhibition [1]: 98%
- inhibition at 1 µM (RPMI-8226): 63%
- inhibition [2]: 99%

Compound: Cn1cc(-c2c(F)cncc2/C=C/C(=O)Nc2ccc(CN3CCOCC3)cc2F)cn1
- inhibition [1]: 99%
- inhibition at 1 µM (RPMI-8226): 53%
- inhibition [2]: 98%

Compound: Cn1cc(-c2ccncc2/C=C/C(=O)Nc2ccc3ncsc3c2)cn1
- inhibition [1]: 90%
- inhibition at 1 µM (RPMI-8226): 53%
- inhibition [2]: 94%

Compound: C[C@@H]1CN(Cc2ccc(NC(=O)/C=C/c3cnccc3-c3cnn(C)c3)cc2)C[C@H](C)O1
- inhibition [1]: 97%
- inhibition at 1 µM (RPMI-8226): 58%
- inhibition [2]: 101%

Compound: Cn1cc(-c2ccncc2/C=C/C(=O)Nc2ccc(CN3CC4CCC(C3)O4)cc2)cn1
- inhibition [1]: 97%
- inhibition at 1 µM (RPMI-8226): 61%
- inhibition [2]: 96%

Compound: Cn1cc(-c2ccncc2/C=C/C(=O)Nc2ccc3c(c2)CCN3)cn1
- inhibition [1]: 96%
- inhibition at 1 µM (RPMI-8226): 58%
- inhibition [2]: 97%

Compound: Cn1cc(-c2ccncc2/C=C/C(=O)Nc2ccc(CN3CCOCC3)cc2)cn1
- inhibition [1]: 98%
- inhibition at 1 µM (RPMI-8226): 60%
- inhibition [2]: 100%

Compound: Cn1cc(-c2ccncc2/C=C/C(=O)Nc2ccc(CN3CCC4(CC3)COC4)cc2)cn1
- inhibition [1]: 97%
- inhibition at 1 µM (RPMI-8226): 60%
- inhibition [2]: 97%

Compound: Cc1ccc(NC(=O)/C=C/c2cnccc2-c2cn[nH]c2)c(F)c1
- inhibition [1]: 97%
- inhibition at 1 µM (RPMI-8226): 59%
- inhibition [2]: 100%

Compound: COC1CN(Cc2ccc(NC(=O)/C=C/c3cncc(F)c3-c3cnn(C4CC4)c3)c(F)c2)C1
- inhibition [1]: 96%
- inhibition at 1 µM (RPMI-8226): 63%
- inhibition [2]: 103%

Compound: Cn1cc(-c2ccncc2/C=C/C(=O)Nc2ccc(CNC3CC3)cc2)cn1
- inhibition [1]: 96%
- inhibition at 1 µM (RPMI-8226): 56%
- inhibition [2]: 95%

Compound: CC(C)(O)Cc1ccc(NC(=O)/C=C/c2cncc(F)c2-c2cnn(C3CC3)c2)c(F)c1
- inhibition [1]: 99%
- inhibition at 1 µM (RPMI-8226): 60%
- inhibition [2]: 102%

Compound: Cn1cc(-c2ccncc2/C=C/C(=O)Nc2ccc3cnccc3c2)cn1
- inhibition [1]: 99%
- inhibition at 1 µM (RPMI-8226): 62%
- inhibition [2]: 96%

Compound: Cn1cc(-c2c(F)cncc2/C=C/C(=O)Nc2ccc3c(c2)CN(CC(F)(F)F)C3)cn1
- inhibition [1]: 104%
- inhibition at 1 µM (RPMI-8226): 56%
- inhibition [2]: 106%

Compound: O=C(/C=C/c1cncc(F)c1-c1cnn(C2CC2)c1)Nc1ccc2c(c1)OCCO2
- inhibition [1]: 98%
- inhibition at 1 µM (RPMI-8226): 65%
- inhibition [2]: 103%

Compound: O=C(/C=C/c1cnccc1-c1ccns1)Nc1ccc(CN2CCOCC2)cc1
- inhibition [1]: 98%
- inhibition at 1 µM (RPMI-8226): 54%
- inhibition [2]: 101%

Compound: CCN1CCc2ccc(NC(=O)/C=C/c3cnccc3-c3cnn(C)c3)cc2C1
- inhibition [1]: 95%
- inhibition at 1 µM (RPMI-8226): 56%
- inhibition [2]: 99%

Compound: Cn1cc(-c2ccncc2/C=C/C(=O)Nc2ccc(CN3CC(F)(F)OC(F)(F)C3)cc2)cn1
- inhibition [1]: 98%
- inhibition at 1 µM (RPMI-8226): 55%
- inhibition [2]: 97%

Compound: Cn1cc(-c2ccncc2/C=C/C(=O)Nc2ccc(CN3CCOCC3)c(F)c2)cn1
- inhibition [1]: 97%
- inhibition at 1 µM (RPMI-8226): 62%
- inhibition [2]: 99%

Compound: O=C(/C=C/c1cnccc1-c1cnn(C2CC2)c1)Nc1ccc(CN2CC(F)(F)C2)cc1F
- inhibition [1]: 74%
- inhibition at 1 µM (RPMI-8226): 51%
- inhibition [2]: 105%

Compound: O=C(/C=C/c1cnccc1-c1cn[nH]c1)Nc1ccc(CN2CCOCC2)cc1
- inhibition [1]: 99%
- inhibition at 1 µM (RPMI-8226): 61%
- inhibition [2]: 100%
